Assay results taken from PubChem BioAssay (NCI).
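96-well plates; 48 h exposure; 5 concentrations. Endpoints by linear interpolation between flanking doses. Not reached: highest tested concentration assigned. The concentration for 50% growth inhibition is given as GI50. TGI denotes the concentration required for complete inhibition of growth.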

What was measured:
Assay in all cases: NCI-60 cell line screen, 48 h
A498 renal = tested on: A498 renal
NCI-H226 lung = tested on: NCI-H226 lung
SR leukemia = tested on: SR leukemia
SNB-75 CNS = tested on: SNB-75 CNS
NCI-H23 lung = tested on: NCI-H23 lung
MALME-3M melanoma = tested on: MALME-3M melanoma
DU-145 prostate = tested on: DU-145 prostate
MDA-MB-435 = tested on: MDA-MB-435
EKVX NSCLC = tested on: EKVX NSCLC
OVCAR-5 ovarian = tested on: OVCAR-5 ovarian
OVCAR-3 ovarian = tested on: OVCAR-3 ovarian
RPMI-8226 leukemia = tested on: RPMI-8226 leukemia
TK-10 renal = tested on: TK-10 renal
NCI/ADR-RES ovarian = tested on: NCI/ADR-RES ovarian
SF-295 CNS = tested on: SF-295 CNS
U251 CNS = tested on: U251 CNS
OVCAR-4 ovarian = tested on: OVCAR-4 ovarian
OVCAR-8 ovarian = tested on: OVCAR-8 ovarian
T-47D breast = tested on: T-47D breast
786-0 renal = tested on: 786-0 renal
HT29 colon = tested on: HT29 colon
COLO 205 colon = tested on: COLO 205 colon
MDA-MB-231 breast = tested on: MDA-MB-231 breast
SK-MEL-2 melanoma = tested on: SK-MEL-2 melanoma
LOX IMVI melanoma = tested on: LOX IMVI melanoma
SK-MEL-28 melanoma = tested on: SK-MEL-28 melanoma
SK-MEL-5 melanoma = tested on: SK-MEL-5 melanoma
HOP-92 NSCLC = tested on: HOP-92 NSCLC
A549 NSCLC = tested on: A549 NSCLC
HS 578T breast = tested on: HS 578T breast
UACC-257 melanoma = tested on: UACC-257 melanoma
SF-539 CNS = tested on: SF-539 CNS
IGROV1 ovarian = tested on: IGROV1 ovarian
HCT-116 colon = tested on: HCT-116 colon
HOP-62 NSCLC = tested on: HOP-62 NSCLC
SNB-19 CNS = tested on: SNB-19 CNS
CAKI-1 renal = tested on: CAKI-1 renal
HCC-2998 colon = tested on: HCC-2998 colon
BT-549 breast = tested on: BT-549 breast
M14 melanoma = tested on: M14 melanoma
KM12 colon = tested on: KM12 colon
RXF 393 renal = tested on: RXF 393 renal
NCI-H460 lung = tested on: NCI-H460 lung
MOLT-4 leukemia = tested on: MOLT-4 leukemia
ACHN renal = tested on: ACHN renal
SK-OV-3 ovarian = tested on: SK-OV-3 ovarian
PC-3 prostate = tested on: PC-3 prostate
NCI-H522 lung = tested on: NCI-H522 lung
CCRF-CEM leukemia = tested on: CCRF-CEM leukemia
SF-268 CNS = tested on: SF-268 CNS
SW-620 colon = tested on: SW-620 colon
HCT-15 colon = tested on: HCT-15 colon
K-562 leukemia = tested on: K-562 leukemia
HL-60(TB) leukemia = tested on: HL-60(TB) leukemia
MCF7 breast = tested on: MCF7 breast

For `COC(=O)[C@]12CC[C@@H](C)[C@H](C)[C@@H]1C1=CC[C@@H]3[C@@]4(C)C[C@@H](OC(C)=O)[C@H](OC(C)=O)[C@@](C)(COC(C)=O)[C@@H]4[C@H](O)C[C@@]3(C)[C@]1(C)CC2`, the GI50 (A498 renal) was 1920 nM, the TGI (A498 renal) was 68.5 µM and the GI50 (NCI-H226 lung) was 5.09 µM. The TGI (NCI-H226 lung) was over 100 µM, the GI50 (SR leukemia) was 465 nM and the TGI (SR leukemia) was 9.4 µM. For the same compound, the GI50 (SNB-75 CNS) was 4.32 µM, the TGI (SNB-75 CNS) was over 100 µM and the GI50 (NCI-H23 lung) was 2250 nM. The TGI (NCI-H23 lung) was over 100 µM, the GI50 (MALME-3M melanoma) was 3.82 µM and the TGI (MALME-3M melanoma) was 74.8 µM. It also gave a GI50 (DU-145 prostate) of 3.55 µM, a TGI (DU-145 prostate) of over 100 µM and a GI50 (MDA-MB-435) of 1860 nM. The TGI (MDA-MB-435) was over 100 µM, the GI50 (EKVX NSCLC) was 2140 nM and the TGI (EKVX NSCLC) was over 100 µM. For the same compound, the GI50 (OVCAR-5 ovarian) was 7.04 µM, the TGI (OVCAR-5 ovarian) was over 100 µM and the GI50 (OVCAR-3 ovarian) was 2300 nM. It also gave a TGI (OVCAR-3 ovarian) of over 100 µM, a GI50 (RPMI-8226 leukemia) of 1040 nM and a TGI (RPMI-8226 leukemia) of over 100 µM. For the same compound, the GI50 (TK-10 renal) was 3.08 µM, the TGI (TK-10 renal) was over 100 µM and the GI50 (NCI/ADR-RES ovarian) was 3.16 µM. For the same compound, the TGI (NCI/ADR-RES ovarian) was over 100 µM, the GI50 (SF-295 CNS) was 2840 nM and the TGI (SF-295 CNS) was over 100 µM. The GI50 (U251 CNS) was 860 nM, the TGI (U251 CNS) was over 100 µM and the GI50 (OVCAR-4 ovarian) was 3.21 µM. For the same compound, the TGI (OVCAR-4 ovarian) was over 100 µM, the GI50 (OVCAR-8 ovarian) was 3.15 µM and the TGI (OVCAR-8 ovarian) was over 100 µM. It also gave a GI50 (T-47D breast) of 1030 nM, a TGI (T-47D breast) of 8.04 µM and a GI50 (786-0 renal) of 1800 nM. The TGI (786-0 renal) was over 100 µM, the GI50 (HT29 colon) was 659 nM and the TGI (HT29 colon) was over 100 µM. For the same compound, the GI50 (COLO 205 colon) was 513 nM, the TGI (COLO 205 colon) was 6.25 µM and the GI50 (MDA-MB-231 breast) was 1910 nM. It also gave a TGI (MDA-MB-231 breast) of over 100 µM, a GI50 (SK-MEL-2 melanoma) of 1850 nM and a TGI (SK-MEL-2 melanoma) of over 100 µM. For the same compound, the GI50 (LOX IMVI melanoma) was 540 nM, the TGI (LOX IMVI melanoma) was over 100 µM and the GI50 (SK-MEL-28 melanoma) was 2740 nM. It also gave a TGI (SK-MEL-28 melanoma) of over 100 µM, a GI50 (SK-MEL-5 melanoma) of 367 nM and a TGI (SK-MEL-5 melanoma) of 1720 nM. For the same compound, the GI50 (HOP-92 NSCLC) was 3.9 µM, the TGI (HOP-92 NSCLC) was over 100 µM and the GI50 (A549 NSCLC) was 2060 nM. The TGI (A549 NSCLC) was over 100 µM, the GI50 (HS 578T breast) was 8.15 µM and the TGI (HS 578T breast) was over 100 µM. For the same compound, the GI50 (UACC-257 melanoma) was 2430 nM, the TGI (UACC-257 melanoma) was 8.21 µM and the GI50 (SF-539 CNS) was 3.92 µM. It also gave a TGI (SF-539 CNS) of over 100 µM, a GI50 (IGROV1 ovarian) of 2170 nM and a TGI (IGROV1 ovarian) of over 100 µM. For the same compound, the GI50 (HCT-116 colon) was 423 nM, the TGI (HCT-116 colon) was over 100 µM and the GI50 (HOP-62 NSCLC) was 3.25 µM. The TGI (HOP-62 NSCLC) was over 100 µM, the GI50 (SNB-19 CNS) was 3.54 µM and the TGI (SNB-19 CNS) was over 100 µM. It also gave a GI50 (CAKI-1 renal) of 930 nM, a TGI (CAKI-1 renal) of over 100 µM and a GI50 (HCC-2998 colon) of 2810 nM. The TGI (HCC-2998 colon) was over 100 µM, the GI50 (BT-549 breast) was 1400 nM and the TGI (BT-549 breast) was 81.4 µM. The GI50 (M14 melanoma) was 1280 nM, the TGI (M14 melanoma) was over 100 µM and the GI50 (KM12 colon) was 1030 nM. It also gave a TGI (KM12 colon) of over 100 µM, a GI50 (RXF 393 renal) of 6.88 µM and a TGI (RXF 393 renal) of 61.4 µM. The GI50 (NCI-H460 lung) was 505 nM, the TGI (NCI-H460 lung) was 16.2 µM and the GI50 (MOLT-4 leukemia) was 901 nM. For the same compound, the TGI (MOLT-4 leukemia) was 11.5 µM, the GI50 (ACHN renal) was 2710 nM and the TGI (ACHN renal) was over 100 µM. For the same compound, the GI50 (SK-OV-3 ovarian) was 3.1 µM, the TGI (SK-OV-3 ovarian) was over 100 µM and the GI50 (PC-3 prostate) was 535 nM. It also gave a TGI (PC-3 prostate) of over 100 µM, a GI50 (NCI-H522 lung) of 1920 nM and a TGI (NCI-H522 lung) of 89 µM. It also gave a GI50 (CCRF-CEM leukemia) of 1960 nM, a TGI (CCRF-CEM leukemia) of over 100 µM and a GI50 (SF-268 CNS) of 2620 nM. For the same compound, the TGI (SF-268 CNS) was over 100 µM, the GI50 (SW-620 colon) was 892 nM and the TGI (SW-620 colon) was over 100 µM. The GI50 (HCT-15 colon) was 430 nM, the TGI (HCT-15 colon) was over 100 µM and the GI50 (K-562 leukemia) was 356 nM. The TGI (K-562 leukemia) was over 100 µM, the GI50 (HL-60(TB) leukemia) was 590 nM and the TGI (HL-60(TB) leukemia) was 11.4 µM. The GI50 (MCF7 breast) was 1570 nM and the TGI (MCF7 breast) was 27.9 µM.
